Assays:
PC-3 cells [1] = assay: In vitro cytotoxicity, MTT staining; type: cell-based; settings: Homo sapiens
Experimental: (§1) The human prostate cancer cell lines PC-3, LNCaP and DU-145 and the breast cancer cell lines MCF-7 and MDA-231 were purchased from ATCC (Manassas, Va.). PC-3, LNCaP, and DU-145 cells were cultured in F12K, RPMI, and EMEM, respectively. MCF-7 and MDA-231 cells were cultured in RPMI. All culture media were supplemented with 10% FBS and 1% penicillin/streptomycin antibiotics (ATCC). All the cells were maintained at 37° C. in incubators with 5% CO2 and humidified atmosphere.
(§2) The cytotoxicity of the liposomal IPA-3 as well as the free IPA-3 was determined in three prostate cancer cell lines (PC-3, LNCaP, and DU-145) using the MTT assay (Twentyman, et al., Br J Cancer. 1987; 56: 279-85). Free IPA-3 and SSL-IPA-3 were used for comparison. Cells were seeded in 48-well tissue culture plates at 5×10^4 cells/ml and incubated at 37° C. in a 5% CO2 incubator for 24 hr. This time was sufficient for the cells to attach and resume their growth. Liposomes were diluted in the different culture media to their final concentrations and experiments were performed in triplicates. […] Plates were shaken for 15 min and absorbance was read at 590 nm using a Spectra Max M2 plate reader (BMG Lab Technologies, Inc., Durham, NC). […]

LNCaP cells = assay: In vitro cytotoxicity, MTT staining; type: cell-based; settings: Homo sapiens
Experimental: as §1, §2

[2] = test system: PC-3 cell tumor xenografts; settings: daily administration (Al-Azayzih et al. 2015); cited from earlier work
[3] = test system: PC-3 cell tumor xenografts; assay: In vivo prostate tumor xenograft growth; set-up: species or system athymic nude mice; settings: 5 mg/kg i.p., 2 days/week, from day 7 to day 25
Experimental: (§3) All animal procedures listed in this article were performed as per the protocol approved by the Institutional Animal Care and Use Committee at the Charlie Norwood Veterans Affairs Medical Center, Augusta, GA (protocol #12-06-049). PC-3 cells were grown to 60-70% confluent in 225-ml flasks. Next, cells were collected and suspended in sterile normal saline. Cell suspension (3 million cells//mouse) was injected subcutaneously (SC) in 6-8-weeks-old male athymic nude mice (Harlan, Indianapolis, IN) (n=5-6). All the treatments (DMSO, empty liposomes, free IPA-3 (5 mg/Kg), and SSL-IPA-3 (5 mg/kg) were started on day 7 from tumor implantation, and were administered two times a week (i.p.). Tumor diameters were measured with digital calipers on day 7, 14, 21, and 25, and the tumor volume in mm^3 were calculated by the modified ellipsoidal formula (Tumor volume=½[length×width^2]). Average size of the tumors prior to the treatment with free IPA-3 and SSL-IPA-3 were 42 mm^3. Mice were sacrificed on day 25 and tumors were dissected, weighed, and snap-frozen for further immunohistochemistry analysis.

[4] = test system: human prostate cancer cell lines PC-3, LNCaP and DU-145; assay: In vitro cytotoxicity, MTT staining, across the prostate cancer cell lines; type: cell-based
Experimental: as §1, §2

MCF-7 cells = assay: In vitro cytotoxicity, MTT staining; type: cell-based; settings: Homo sapiens, MCF7
[5] = test system: PC-3 cell prostate tumor xenografts; assay: TUNEL assay of apoptosis in tumor xenograft sections; type: in vivo, athymic nude mice; settings: 5 mg/kg i.p., 2 days/week; day 25
Experimental: as §3
The TUNEL assay for in situ detection of apoptosis was performed using the ApopTag® Fluorescein in situ Apoptosis detection kit (Millipore, MA) as described previously8. Frozen sections taken from prostate tumor xenografts were fixed in 2% paraformaldehyde at 4° C. for 30 min. […]

[6] = Body weight of tumor bearing mice; type: in vivo, athymic nude mice; settings: 5 mg/kg i.p., 2 days/week; after 25 days
Experimental: as §3

MDA-231 cells = assay: In vitro cytotoxicity, MTT staining; type: cell-based; settings: Homo sapiens, MDA-MB-231
PC-3 cells [7] = assay: Cell death by annexin V and PI staining, flow cytometry; type: cell-based, human; settings: 48 hr, free IPA-3 20-30 μM
DU-145 cells = assay: In vitro cytotoxicity, MTT staining; type: cell-based, human
Experimental: as §1, §2

[8] = free form (Rudolph et al. 2015); cited from earlier work

In the case of `Oc1ccc2ccccc2c1SSc1c(O)ccc2ccccc12` [IPA-3, 1,1′-Dithiodi-2-naphthtol], the IC50 (PC-3 cells [1]) is given as 12 µM, the IC50 (LNCaP cells) is given as 10 µM and the “prostate tumor xenograft growth” value [2] is given as “reduced prostate tumor xenograft growth”. For the same compound, the “PC-3 cell tumor xenograft growth” value [3] was “did not have a significant effect”, the IC50 ([4]; Homo sapiens, depending on the cell line, MTT staining) was 10 to 35 µM and the “effect on MTT staining” value ([4]; concentrations of 5-30 μM, 24, 48, 72 hrs) was “concentration-and time-dependent decreases in MTT staining”. For the same compound, the IC50 (MCF-7 cells) was 25 µM, the “number of apoptotic (TUNEL positive) cells per field compared to control groups” value [5] was “significant increases” and the “effect on body weight of mice” value [6] was “no significant effect”. For the same compound, the IC50 (MDA-231 cells) was 8 µM, the “percent of cells staining positive for annexin V alone” value (PC-3 cells [7]) was “significantly increased” and the “percent of cells staining positive for both annexin V and PI” value (PC-3 cells [7]) was “significantly increased”. The “susceptibility of DU-145 cells compared to PC-3 and LNCaP cells” value (DU-145 cells) was “less susceptible”, the IC50 (DU-145 cells; Homo sapiens, DU-145, DU-145) was about 32 µM and the half-life in vivo [8] was “very short half-life”.

Reference: US11969396B2, “IPA-3-loaded liposomes and methods of use thereof” (University of Georgia Research Foundation, Inc., priority 2016, dated 2024)
